Source: ChEMBL document CHEMBL5653615 (J Biol Chem, 2013)

Assays:
[1] = molecular target: Wee1-like protein kinase (Homo sapiens) (UniProt P30291); experiment: Inhibition of human WEE1 at 18.6 nM by HotSpot assay relative to control
[2] = molecular target: Ephrin type-A receptor 4 (Homo sapiens) (UniProt P54764); experiment: Inhibition of human EPHA4 at 18.6 nM by HotSpot assay relative to control
[3] = molecular target: Serine/threonine-protein kinase N2 (Homo sapiens) (UniProt Q16513); experiment: Inhibition of human PRK2 at 18.6 nM by HotSpot assay relative to control
[4] = molecular target: Leukocyte tyrosine kinase receptor (Homo sapiens) (UniProt P29376); experiment: Inhibition of human LTK at 18.6 nM by HotSpot assay relative to control
[5] = molecular target: T1, Protein kinase C iota type (Homo sapiens) (UniProt P41743); experiment: Inhibition of human PKCiota at 18.6 nM by HotSpot assay relative to control
T1 sequence (whole entry): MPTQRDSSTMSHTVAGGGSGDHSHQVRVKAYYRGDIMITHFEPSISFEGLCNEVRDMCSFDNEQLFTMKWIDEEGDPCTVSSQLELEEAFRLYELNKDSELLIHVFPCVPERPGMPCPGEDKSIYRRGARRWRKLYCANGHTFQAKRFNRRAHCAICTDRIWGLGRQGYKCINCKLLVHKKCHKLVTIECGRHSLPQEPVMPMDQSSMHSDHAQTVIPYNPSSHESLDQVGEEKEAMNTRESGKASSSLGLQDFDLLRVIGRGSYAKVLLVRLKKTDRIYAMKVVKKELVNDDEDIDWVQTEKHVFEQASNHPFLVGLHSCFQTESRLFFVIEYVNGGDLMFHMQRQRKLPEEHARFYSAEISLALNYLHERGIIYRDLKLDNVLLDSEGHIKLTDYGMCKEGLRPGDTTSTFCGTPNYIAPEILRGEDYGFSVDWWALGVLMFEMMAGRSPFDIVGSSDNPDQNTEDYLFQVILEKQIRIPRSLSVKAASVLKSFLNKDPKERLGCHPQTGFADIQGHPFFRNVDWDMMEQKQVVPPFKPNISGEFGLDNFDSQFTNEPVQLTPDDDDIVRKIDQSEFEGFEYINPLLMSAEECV

[6] = molecular target: Cyclin-dependent kinase 2/cyclin E1 (Homo sapiens) (UniProt P24864+P24941); experiment: Inhibition of human CDK2/cyclin E at 18.6 nM by HotSpot assay relative to control; type: protein-complex assay
[7] = molecular target: Homeodomain-interacting protein kinase 1 (Homo sapiens) (UniProt Q86Z02); experiment: Inhibition of human HIPK1 at 18.6 nM by HotSpot assay relative to control
[8] = organism: Homo sapiens; experiment: Inhibition of human TAO1 at 18.6 nM by HotSpot assay relative to control
[9] = molecular target: SRSF protein kinase 1 (Homo sapiens) (UniProt Q96SB4); experiment: Inhibition of human SRPK1 at 18.6 nM by HotSpot assay relative to control
[10] = molecular target: Calcium/calmodulin-dependent protein kinase type II subunit delta (Homo sapiens) (UniProt Q13557); experiment: Inhibition of human CAMK2d at 18.6 nM by HotSpot assay relative to control
[11] = molecular target: Glycogen synthase kinase-3 beta (Homo sapiens) (UniProt P49841); experiment: Inhibition of human GSK3b at 18.6 nM by HotSpot assay relative to control
[12] = molecular target: Tyrosine-protein kinase receptor UFO (Homo sapiens) (UniProt P30530); experiment: Inhibition of human AXL at 18.6 nM by HotSpot assay relative to control
[13] = molecular target: T2, Serine/threonine-protein kinase Nek9 (Homo sapiens) (UniProt Q8TD19); experiment: Inhibition of human NEK9 at 18.6 nM by HotSpot assay relative to control
T2 sequence (whole entry): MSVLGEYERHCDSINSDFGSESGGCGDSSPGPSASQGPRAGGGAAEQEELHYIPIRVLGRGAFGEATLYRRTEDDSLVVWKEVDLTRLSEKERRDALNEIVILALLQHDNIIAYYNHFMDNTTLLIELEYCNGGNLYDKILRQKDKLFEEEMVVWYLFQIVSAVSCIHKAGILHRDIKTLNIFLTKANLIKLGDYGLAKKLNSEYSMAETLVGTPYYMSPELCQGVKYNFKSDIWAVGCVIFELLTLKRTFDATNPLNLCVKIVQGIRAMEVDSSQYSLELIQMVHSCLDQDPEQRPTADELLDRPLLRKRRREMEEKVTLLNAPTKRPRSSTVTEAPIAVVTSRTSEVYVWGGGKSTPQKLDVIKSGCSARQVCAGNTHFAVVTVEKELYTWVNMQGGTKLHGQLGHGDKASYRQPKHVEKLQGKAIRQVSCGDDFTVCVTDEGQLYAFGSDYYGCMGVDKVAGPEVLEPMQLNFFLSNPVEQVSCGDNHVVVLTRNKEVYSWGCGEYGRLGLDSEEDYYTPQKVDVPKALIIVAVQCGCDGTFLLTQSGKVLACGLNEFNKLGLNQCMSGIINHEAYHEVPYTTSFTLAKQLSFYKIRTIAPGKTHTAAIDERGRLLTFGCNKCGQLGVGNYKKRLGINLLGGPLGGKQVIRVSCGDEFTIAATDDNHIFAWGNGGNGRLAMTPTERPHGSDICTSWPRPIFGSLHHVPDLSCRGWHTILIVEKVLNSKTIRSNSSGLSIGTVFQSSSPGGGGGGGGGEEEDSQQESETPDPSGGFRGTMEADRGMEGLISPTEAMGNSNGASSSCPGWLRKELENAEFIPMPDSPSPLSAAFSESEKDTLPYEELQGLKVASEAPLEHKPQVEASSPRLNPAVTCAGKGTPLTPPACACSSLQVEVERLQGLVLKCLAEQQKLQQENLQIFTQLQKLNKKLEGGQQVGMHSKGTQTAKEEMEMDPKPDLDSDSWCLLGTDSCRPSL

[14] = molecular target: Serine/threonine-protein kinase Nek4 (Homo sapiens) (UniProt P51957); experiment: Inhibition of human NEK4 at 1.82 nM by HotSpot assay relative to control
[15] = molecular target: CDK6/cyclin D1 (Homo sapiens) (UniProt P24385+Q00534); experiment: Inhibition of human CDK6/cyclin D1 at 1.82 nM by HotSpot assay relative to control; type: protein-complex assay

Homeodomain-interacting protein kinase 1 (Homo sapiens), sequence (Q86Z02 whole entry, looked up): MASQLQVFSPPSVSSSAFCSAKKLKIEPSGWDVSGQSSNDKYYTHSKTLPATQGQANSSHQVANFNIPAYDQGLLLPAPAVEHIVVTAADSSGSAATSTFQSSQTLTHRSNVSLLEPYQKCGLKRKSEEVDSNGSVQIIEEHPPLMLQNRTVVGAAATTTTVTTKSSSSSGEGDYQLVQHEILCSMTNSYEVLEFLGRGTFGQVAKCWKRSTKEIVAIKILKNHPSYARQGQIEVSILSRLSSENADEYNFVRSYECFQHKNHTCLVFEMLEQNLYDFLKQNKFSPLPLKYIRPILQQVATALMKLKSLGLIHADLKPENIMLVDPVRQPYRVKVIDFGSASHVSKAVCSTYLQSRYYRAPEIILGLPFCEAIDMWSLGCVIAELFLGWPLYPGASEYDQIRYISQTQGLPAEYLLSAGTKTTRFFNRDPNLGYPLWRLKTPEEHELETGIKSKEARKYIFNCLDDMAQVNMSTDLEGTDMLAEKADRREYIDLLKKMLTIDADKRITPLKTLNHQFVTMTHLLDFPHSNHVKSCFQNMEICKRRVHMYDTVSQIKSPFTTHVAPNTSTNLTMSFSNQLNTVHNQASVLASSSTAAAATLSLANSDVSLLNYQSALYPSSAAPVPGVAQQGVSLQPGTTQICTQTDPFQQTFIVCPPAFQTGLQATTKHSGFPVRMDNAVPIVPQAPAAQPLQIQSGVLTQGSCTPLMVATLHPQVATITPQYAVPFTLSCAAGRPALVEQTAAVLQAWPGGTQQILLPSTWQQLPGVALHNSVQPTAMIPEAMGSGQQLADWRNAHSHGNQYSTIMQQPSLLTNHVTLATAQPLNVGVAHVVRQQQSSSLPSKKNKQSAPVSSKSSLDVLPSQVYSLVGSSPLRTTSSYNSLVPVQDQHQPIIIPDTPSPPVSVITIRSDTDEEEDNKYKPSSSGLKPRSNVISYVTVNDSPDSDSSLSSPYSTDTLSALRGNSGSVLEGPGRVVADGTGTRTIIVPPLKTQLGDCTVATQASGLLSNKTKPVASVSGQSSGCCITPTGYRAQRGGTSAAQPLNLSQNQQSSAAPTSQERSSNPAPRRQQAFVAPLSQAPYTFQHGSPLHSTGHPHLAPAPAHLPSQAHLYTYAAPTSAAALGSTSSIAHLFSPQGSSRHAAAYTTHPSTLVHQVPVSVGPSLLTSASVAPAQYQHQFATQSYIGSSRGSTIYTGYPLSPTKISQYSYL
Serine/threonine-protein kinase N2 (Homo sapiens), sequence (Q16513 whole entry, looked up): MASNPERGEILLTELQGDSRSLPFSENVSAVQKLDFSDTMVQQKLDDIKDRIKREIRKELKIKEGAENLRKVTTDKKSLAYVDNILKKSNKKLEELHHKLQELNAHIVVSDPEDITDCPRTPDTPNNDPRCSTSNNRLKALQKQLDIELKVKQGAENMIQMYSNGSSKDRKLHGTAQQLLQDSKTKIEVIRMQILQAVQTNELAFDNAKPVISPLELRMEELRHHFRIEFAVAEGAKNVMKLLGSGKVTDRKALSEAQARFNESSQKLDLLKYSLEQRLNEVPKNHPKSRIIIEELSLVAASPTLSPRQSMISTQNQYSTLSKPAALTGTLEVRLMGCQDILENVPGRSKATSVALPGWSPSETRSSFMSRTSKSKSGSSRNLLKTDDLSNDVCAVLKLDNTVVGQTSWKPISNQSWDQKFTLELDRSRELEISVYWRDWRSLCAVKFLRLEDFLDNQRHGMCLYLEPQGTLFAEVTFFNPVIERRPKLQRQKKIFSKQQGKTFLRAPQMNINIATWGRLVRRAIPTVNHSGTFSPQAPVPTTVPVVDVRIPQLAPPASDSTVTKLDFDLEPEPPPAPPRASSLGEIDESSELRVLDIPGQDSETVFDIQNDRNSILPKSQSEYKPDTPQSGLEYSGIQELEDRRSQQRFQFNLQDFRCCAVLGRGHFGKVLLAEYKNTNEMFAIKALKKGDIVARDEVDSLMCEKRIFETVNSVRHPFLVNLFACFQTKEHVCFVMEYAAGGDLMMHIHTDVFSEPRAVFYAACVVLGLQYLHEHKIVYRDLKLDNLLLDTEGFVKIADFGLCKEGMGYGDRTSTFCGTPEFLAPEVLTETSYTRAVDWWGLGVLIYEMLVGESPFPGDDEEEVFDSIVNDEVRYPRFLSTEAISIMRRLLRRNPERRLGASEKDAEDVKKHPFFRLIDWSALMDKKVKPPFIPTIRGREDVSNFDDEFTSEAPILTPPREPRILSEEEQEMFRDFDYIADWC
Ephrin type-A receptor 4 (Homo sapiens), sequence (P54764 whole entry): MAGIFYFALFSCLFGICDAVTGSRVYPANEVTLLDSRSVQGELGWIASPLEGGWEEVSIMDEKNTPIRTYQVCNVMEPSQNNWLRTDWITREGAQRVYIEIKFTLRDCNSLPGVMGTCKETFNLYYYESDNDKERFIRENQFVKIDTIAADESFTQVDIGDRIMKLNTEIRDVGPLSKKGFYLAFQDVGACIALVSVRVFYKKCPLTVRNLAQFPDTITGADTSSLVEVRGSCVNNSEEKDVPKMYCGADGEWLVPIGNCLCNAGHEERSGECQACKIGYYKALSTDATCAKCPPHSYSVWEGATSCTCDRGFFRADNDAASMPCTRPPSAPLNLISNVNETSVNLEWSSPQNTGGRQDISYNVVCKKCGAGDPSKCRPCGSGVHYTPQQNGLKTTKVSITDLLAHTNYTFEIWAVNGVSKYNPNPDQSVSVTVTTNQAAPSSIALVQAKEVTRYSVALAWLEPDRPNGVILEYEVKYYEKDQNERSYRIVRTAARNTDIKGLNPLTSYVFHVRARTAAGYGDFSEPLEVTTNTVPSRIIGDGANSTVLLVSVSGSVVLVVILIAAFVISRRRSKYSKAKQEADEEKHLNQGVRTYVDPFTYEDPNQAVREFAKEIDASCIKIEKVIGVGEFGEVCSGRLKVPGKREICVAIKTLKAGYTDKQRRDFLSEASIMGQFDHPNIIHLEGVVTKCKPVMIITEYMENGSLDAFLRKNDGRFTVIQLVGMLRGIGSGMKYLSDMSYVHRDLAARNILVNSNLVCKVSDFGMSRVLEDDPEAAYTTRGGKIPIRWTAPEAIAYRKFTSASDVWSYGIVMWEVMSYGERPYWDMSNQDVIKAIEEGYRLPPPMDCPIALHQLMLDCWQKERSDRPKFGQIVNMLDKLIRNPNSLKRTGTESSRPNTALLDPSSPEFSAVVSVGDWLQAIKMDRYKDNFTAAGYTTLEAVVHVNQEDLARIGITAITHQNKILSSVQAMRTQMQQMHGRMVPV
Serine/threonine-protein kinase Nek4 (Homo sapiens), sequence (P51957 whole entry, looked up): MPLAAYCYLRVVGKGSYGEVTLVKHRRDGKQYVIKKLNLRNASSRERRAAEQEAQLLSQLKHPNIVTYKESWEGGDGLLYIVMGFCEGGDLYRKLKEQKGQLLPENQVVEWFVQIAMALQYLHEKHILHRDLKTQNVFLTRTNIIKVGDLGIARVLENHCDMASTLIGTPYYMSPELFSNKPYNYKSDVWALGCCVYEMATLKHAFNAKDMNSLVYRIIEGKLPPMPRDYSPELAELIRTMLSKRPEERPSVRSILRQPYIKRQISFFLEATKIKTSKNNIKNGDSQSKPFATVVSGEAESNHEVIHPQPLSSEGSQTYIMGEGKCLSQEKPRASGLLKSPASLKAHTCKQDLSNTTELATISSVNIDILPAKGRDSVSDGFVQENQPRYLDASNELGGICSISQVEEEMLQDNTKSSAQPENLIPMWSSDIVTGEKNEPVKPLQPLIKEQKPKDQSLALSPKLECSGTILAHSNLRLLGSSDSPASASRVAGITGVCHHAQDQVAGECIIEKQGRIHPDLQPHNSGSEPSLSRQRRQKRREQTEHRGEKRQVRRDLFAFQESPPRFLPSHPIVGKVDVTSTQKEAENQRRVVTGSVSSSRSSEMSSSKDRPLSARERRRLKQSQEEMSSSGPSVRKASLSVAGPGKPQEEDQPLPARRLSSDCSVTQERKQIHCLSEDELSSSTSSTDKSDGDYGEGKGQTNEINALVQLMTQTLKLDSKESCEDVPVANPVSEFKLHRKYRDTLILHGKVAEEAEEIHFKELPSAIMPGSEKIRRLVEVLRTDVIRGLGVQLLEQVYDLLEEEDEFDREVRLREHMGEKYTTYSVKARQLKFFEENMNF
Wee1-like protein kinase (Homo sapiens), sequence (P30291 whole entry, looked up): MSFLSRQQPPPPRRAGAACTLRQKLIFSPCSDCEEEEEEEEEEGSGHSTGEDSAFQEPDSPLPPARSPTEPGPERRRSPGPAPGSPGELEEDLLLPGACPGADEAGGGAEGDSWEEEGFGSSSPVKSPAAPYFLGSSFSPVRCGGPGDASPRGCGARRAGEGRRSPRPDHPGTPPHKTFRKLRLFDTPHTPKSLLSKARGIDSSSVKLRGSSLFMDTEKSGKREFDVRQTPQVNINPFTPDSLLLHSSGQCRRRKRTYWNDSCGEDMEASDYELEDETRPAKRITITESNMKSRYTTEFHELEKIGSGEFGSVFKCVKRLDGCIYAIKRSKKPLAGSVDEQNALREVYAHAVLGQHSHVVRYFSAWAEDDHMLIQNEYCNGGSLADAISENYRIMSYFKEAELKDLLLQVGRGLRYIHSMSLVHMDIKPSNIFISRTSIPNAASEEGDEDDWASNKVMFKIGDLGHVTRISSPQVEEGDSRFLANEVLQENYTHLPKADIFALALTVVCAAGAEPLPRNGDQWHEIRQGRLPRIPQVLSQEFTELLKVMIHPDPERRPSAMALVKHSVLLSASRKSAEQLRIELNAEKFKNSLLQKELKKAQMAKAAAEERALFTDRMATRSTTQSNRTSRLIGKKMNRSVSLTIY
Glycogen synthase kinase-3 beta (Homo sapiens), sequence (P49841 whole entry, looked up): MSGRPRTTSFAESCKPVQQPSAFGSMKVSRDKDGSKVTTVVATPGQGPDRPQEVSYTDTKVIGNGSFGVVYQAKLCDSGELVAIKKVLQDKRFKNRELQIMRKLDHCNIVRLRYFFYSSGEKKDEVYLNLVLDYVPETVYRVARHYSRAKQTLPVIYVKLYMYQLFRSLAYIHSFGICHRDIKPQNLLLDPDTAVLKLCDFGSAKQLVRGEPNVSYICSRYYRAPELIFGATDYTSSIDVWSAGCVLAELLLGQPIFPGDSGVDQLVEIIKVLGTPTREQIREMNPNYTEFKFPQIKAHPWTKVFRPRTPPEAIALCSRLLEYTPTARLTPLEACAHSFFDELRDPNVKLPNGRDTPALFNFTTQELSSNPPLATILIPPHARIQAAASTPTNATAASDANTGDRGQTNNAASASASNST

Row | Structure (SMILES) | inhibition [1] [%] | inhibition [2] [%] | inhibition [3] [%] | inhibition [4] [%] | inhibition [5] [%] | inhibition [6] [%] | inhibition [7] [%] | inhibition [8] [%] | inhibition [9] [%] | inhibition [10] [%] | inhibition [11] [%] | inhibition [12] [%] | inhibition [13] [%] | inhibition [14] [%] | inhibition [15] [%]
1 | C[C@]1(O)C[C@@H](c2nc(-c3ccc4ccc(-c5ccccc5)nc4c3)c3c(N)nccn32)C1 | 7.34 | -8.39 | 1.32 | -0.44 | -2.19 | 2.03 | -4.32 | 1.8 | -6.12 | 0.37 | 67.1 | 3.94 | -6.26 |  | 
2 | C[C@@]1(C(=O)Nc2ccc(F)nc2)CCCN1c1nc(Nc2cc(C3CC3)n[nH]2)c2cccn2n1 |  |  |  |  |  |  |  |  |  |  |  |  |  | -3.35 | -1.74
